Data taken from PubChem BioAssay (NCI).
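Grown in 96-well plates, cells were treated for 48 hours with each compound at five concentrations. Insufficient inhibition: endpoint recorded as highest concentration tested. The concentration for 50% growth inhibition is given as GI50. TGI is the concentration that stops growth completely.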

Tests used:
Test in all cases: growth of human tumour cells (NCI), 48 h
MDA-MB-468 breast = tested on: MDA-MB-468 breast
HCT-116 colon = tested on: HCT-116 colon
NCI-H522 lung = tested on: NCI-H522 lung
OVCAR-4 ovarian = tested on: OVCAR-4 ovarian
HOP-62 NSCLC = tested on: HOP-62 NSCLC
LOX IMVI melanoma = tested on: LOX IMVI melanoma
NCI/ADR-RES ovarian = tested on: NCI/ADR-RES ovarian
SF-295 CNS = tested on: SF-295 CNS
M14 melanoma = tested on: M14 melanoma
RPMI-8226 leukemia = tested on: RPMI-8226 leukemia
T-47D breast = tested on: T-47D breast
MCF7 breast = tested on: MCF7 breast
ACHN renal = tested on: ACHN renal
SF-268 CNS = tested on: SF-268 CNS
HCT-15 colon = tested on: HCT-15 colon
EKVX NSCLC = tested on: EKVX NSCLC
TK-10 renal = tested on: TK-10 renal
MALME-3M melanoma = tested on: MALME-3M melanoma
OVCAR-8 ovarian = tested on: OVCAR-8 ovarian
786-0 renal = tested on: 786-0 renal
NCI-H226 lung = tested on: NCI-H226 lung
SNB-75 CNS = tested on: SNB-75 CNS
SNB-19 CNS = tested on: SNB-19 CNS
HCC-2998 colon = tested on: HCC-2998 colon
CCRF-CEM leukemia = tested on: CCRF-CEM leukemia
CAKI-1 renal = tested on: CAKI-1 renal
SK-MEL-2 melanoma = tested on: SK-MEL-2 melanoma
SK-MEL-5 melanoma = tested on: SK-MEL-5 melanoma
UACC-62 melanoma = tested on: UACC-62 melanoma
OVCAR-3 ovarian = tested on: OVCAR-3 ovarian
IGROV1 ovarian = tested on: IGROV1 ovarian
SN12C renal = tested on: SN12C renal
SF-539 CNS = tested on: SF-539 CNS
KM12 colon = tested on: KM12 colon
U251 CNS = tested on: U251 CNS
RXF 393 renal = tested on: RXF 393 renal
PC-3 prostate = tested on: PC-3 prostate
SW-620 colon = tested on: SW-620 colon
NCI-H23 lung = tested on: NCI-H23 lung
HS 578T breast = tested on: HS 578T breast
NCI-H460 lung = tested on: NCI-H460 lung
K-562 leukemia = tested on: K-562 leukemia
SK-MEL-28 melanoma = tested on: SK-MEL-28 melanoma
UACC-257 melanoma = tested on: UACC-257 melanoma
HL-60(TB) leukemia = tested on: HL-60(TB) leukemia
HT29 colon = tested on: HT29 colon
COLO 205 colon = tested on: COLO 205 colon
A498 renal = tested on: A498 renal
BT-549 breast = tested on: BT-549 breast
OVCAR-5 ovarian = tested on: OVCAR-5 ovarian
A549 NSCLC = tested on: A549 NSCLC
SK-OV-3 ovarian = tested on: SK-OV-3 ovarian
MDA-MB-231 breast = tested on: MDA-MB-231 breast
UO-31 renal = tested on: UO-31 renal
SR leukemia = tested on: SR leukemia
HOP-92 NSCLC = tested on: HOP-92 NSCLC
MDA-MB-435 = tested on: MDA-MB-435
MOLT-4 leukemia = tested on: MOLT-4 leukemia
DU-145 prostate = tested on: DU-145 prostate

COc1ccc(CN2[C@@H](C(=O)NCc3ccc(C(=O)NO)cc3)Cc3c([nH]c4ccccc34)[C@@H]2C)cc1
GI50 (MDA-MB-468 breast): 0.861 µM
TGI (MDA-MB-468 breast): 4.45 µM
GI50 (HCT-116 colon): 1.47 µM
TGI (HCT-116 colon): > 21 µM
GI50 (NCI-H522 lung): 1.43 µM
TGI (NCI-H522 lung): 5.35 µM
GI50 (OVCAR-4 ovarian): 4.58 µM
TGI (OVCAR-4 ovarian): > 21 µM
GI50 (HOP-62 NSCLC): 2.56 µM
TGI (HOP-62 NSCLC): 7.92 µM
GI50 (LOX IMVI melanoma): 3.23 µM
TGI (LOX IMVI melanoma): 6.3 µM
GI50 (NCI/ADR-RES ovarian): 8.01 µM
TGI (NCI/ADR-RES ovarian): > 21 µM
GI50 (SF-295 CNS): 3.02 µM
TGI (SF-295 CNS): 6.21 µM
GI50 (M14 melanoma): 4.05 µM
TGI (M14 melanoma): > 21 µM
GI50 (RPMI-8226 leukemia): 3.03 µM
TGI (RPMI-8226 leukemia): > 21 µM
GI50 (T-47D breast): 3.56 µM
TGI (T-47D breast): 12.8 µM
GI50 (MCF7 breast): 3.02 µM
TGI (MCF7 breast): 13.8 µM
GI50 (ACHN renal): 3.67 µM
TGI (ACHN renal): 9.07 µM
GI50 (SF-268 CNS): 4.21 µM
TGI (SF-268 CNS): 11.2 µM
GI50 (HCT-15 colon): 4.56 µM
TGI (HCT-15 colon): 19.8 µM
GI50 (EKVX NSCLC): 2.24 µM
TGI (EKVX NSCLC): 13.5 µM
GI50 (TK-10 renal): 2.6 µM
TGI (TK-10 renal): 11.4 µM
GI50 (MALME-3M melanoma): 0.874 µM
TGI (MALME-3M melanoma): 4.86 µM
GI50 (OVCAR-8 ovarian): 2.44 µM
TGI (OVCAR-8 ovarian): 8.91 µM
GI50 (786-0 renal): 5.15 µM
TGI (786-0 renal): > 21 µM
GI50 (NCI-H226 lung): 1.98 µM
TGI (NCI-H226 lung): 10.2 µM
GI50 (SNB-75 CNS): 1.23 µM
TGI (SNB-75 CNS): 7.27 µM
GI50 (SNB-19 CNS): 3.49 µM
TGI (SNB-19 CNS): 8.5 µM
GI50 (HCC-2998 colon): 2.72 µM
TGI (HCC-2998 colon): 5.81 µM
GI50 (CCRF-CEM leukemia): 1.27 µM
TGI (CCRF-CEM leukemia): > 21 µM
GI50 (CAKI-1 renal): 2.83 µM
TGI (CAKI-1 renal): 7.86 µM
GI50 (SK-MEL-2 melanoma): 3.32 µM
TGI (SK-MEL-2 melanoma): 7.3 µM
GI50 (SK-MEL-5 melanoma): 2.96 µM
TGI (SK-MEL-5 melanoma): 6.02 µM
GI50 (UACC-62 melanoma): 2.08 µM
TGI (UACC-62 melanoma): 5.29 µM
GI50 (OVCAR-3 ovarian): 2.51 µM
TGI (OVCAR-3 ovarian): 7.84 µM
GI50 (IGROV1 ovarian): 2.56 µM
TGI (IGROV1 ovarian): 5.78 µM
GI50 (SN12C renal): 3.88 µM
TGI (SN12C renal): 13 µM
GI50 (SF-539 CNS): 2.7 µM
TGI (SF-539 CNS): 7.12 µM
GI50 (KM12 colon): 3.3 µM
TGI (KM12 colon): 7.85 µM
GI50 (U251 CNS): 2.88 µM
TGI (U251 CNS): 8.88 µM
GI50 (RXF 393 renal): 0.724 µM
TGI (RXF 393 renal): 3.71 µM
GI50 (PC-3 prostate): 3.02 µM
TGI (PC-3 prostate): > 21 µM
GI50 (SW-620 colon): 2.34 µM
TGI (SW-620 colon): 11.2 µM
GI50 (NCI-H23 lung): 3.33 µM
TGI (NCI-H23 lung): 7.51 µM
GI50 (HS 578T breast): 1.26 µM
TGI (HS 578T breast): 13 µM
GI50 (NCI-H460 lung): 2.86 µM
TGI (NCI-H460 lung): 10.6 µM
GI50 (K-562 leukemia): 1.93 µM
TGI (K-562 leukemia): > 21 µM
GI50 (SK-MEL-28 melanoma): 2.6 µM
TGI (SK-MEL-28 melanoma): 8.76 µM
GI50 (UACC-257 melanoma): 2.19 µM
TGI (UACC-257 melanoma): 14.4 µM
GI50 (HL-60(TB) leukemia): 2.65 µM
TGI (HL-60(TB) leukemia): 15.4 µM
GI50 (HT29 colon): 3.84 µM
TGI (HT29 colon): > 21 µM
GI50 (COLO 205 colon): 3.59 µM
TGI (COLO 205 colon): 8.33 µM
GI50 (A498 renal): 0.822 µM
TGI (A498 renal): 6.26 µM
GI50 (BT-549 breast): 5.95 µM
TGI (BT-549 breast): 15.6 µM
GI50 (OVCAR-5 ovarian): 1.43 µM
TGI (OVCAR-5 ovarian): 8.11 µM
GI50 (A549 NSCLC): 4.3 µM
TGI (A549 NSCLC): 16.5 µM
GI50 (SK-OV-3 ovarian): 2.58 µM
TGI (SK-OV-3 ovarian): 6.14 µM
GI50 (MDA-MB-231 breast): 2.67 µM
TGI (MDA-MB-231 breast): 5.73 µM
GI50 (UO-31 renal): 2.93 µM
TGI (UO-31 renal): 6.19 µM
GI50 (SR leukemia): 0.335 µM
TGI (SR leukemia): > 21 µM
GI50 (HOP-92 NSCLC): 2.2 µM
TGI (HOP-92 NSCLC): 6.25 µM
GI50 (MDA-MB-435): 1.27 µM
TGI (MDA-MB-435): 5.56 µM
GI50 (MOLT-4 leukemia): 1.6 µM
TGI (MOLT-4 leukemia): > 21 µM
GI50 (DU-145 prostate): 4.41 µM
TGI (DU-145 prostate): 17.8 µM
